Laboratory results as given in ChEMBL document CHEMBL1201862, “PubChem BioAssay data set” (2004).
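Interpolation was linear, between the two tested concentrations surrounding the appropriate level; five concentrations were tested over 48 hours in 96-well plates. GI50 = concentration required for 50% inhibition of growth.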 Calls of active or inactive are those of the source. Rule as the data show it: active = GI50 up to about 1.1 µM and inactive = higher.

Columns and labels:
Experiment in all cases: NCI tumour cell line growth inhibition, 48 h
NCI-H23 = test system: NCI-H23
TK-10 = test system: TK-10
NCI-H522 = test system: NCI-H522
RXF 393 = test system: RXF 393
SF-268 = test system: SF-268
SNB-75 = test system: SNB-75
K562 = test system: K562
Malme-3M = test system: Malme-3M
SK-MEL-5 = test system: SK-MEL-5
COLO 205 = test system: COLO 205
SNB-19 = test system: SNB-19
MDA-MB-231 = test system: MDA-MB-231
HCT-15 = test system: HCT-15
LOX IMVI = test system: LOX IMVI
T47D = test system: T47D
OVCAR-5 = test system: OVCAR-5
A498 = test system: A498
UO-31 = test system: UO-31
SK-MEL-28 = test system: SK-MEL-28
RPMI-8226 = test system: RPMI-8226

O=C(CCc1ccc(O)c(O)c1)NCCc1ccccc1
GI50 (NCI-H23): 35.2 µM (inactive) | GI50 (TK-10): > 79.8 µM (inactive) | GI50 (NCI-H522): 5.6 µM (inactive) | GI50 (RXF 393): > 100 µM (inactive) | GI50 (SF-268): > 32.4 µM (inactive) | GI50 (SNB-75): > 48 µM (inactive) | GI50 (K562): 16.5 µM (inactive) | GI50 (Malme-3M): > 100 µM (inactive) | GI50 (SK-MEL-5): 22.4 µM (inactive) | GI50 (COLO 205): 23.1 µM (inactive) | GI50 (SNB-19): > 74.5 µM (inactive) | GI50 (MDA-MB-231): 16.8 µM (inactive) | GI50 (HCT-15): 15.5 µM | GI50 (LOX IMVI): 63.2 µM (inactive) | GI50 (T47D): 34.4 µM (inactive) | GI50 (OVCAR-5): > 100 µM (inactive) | GI50 (A498): > 100 µM (inactive) | GI50 (UO-31): 10.2 µM (inactive) | GI50 (SK-MEL-28): 85.5 µM (inactive) | GI50 (RPMI-8226): 6.1 µM (inactive)

COc1ccc(/C(Cl)=C(\CNc2ccccn2)c2ccccc2)cc1OC
GI50 (NCI-H23): > 100 µM (inactive) | GI50 (TK-10): > 100 µM (inactive) | GI50 (NCI-H522): 99.8 µM (inactive) | GI50 (RXF 393): > 100 µM (inactive) | GI50 (SF-268): > 100 µM (inactive) | GI50 (SNB-75): > 100 µM (inactive) | GI50 (K562): > 100 µM (inactive) | GI50 (Malme-3M): > 100 µM (inactive) | GI50 (SK-MEL-5): > 100 µM (inactive) | GI50 (COLO 205): > 100 µM (inactive) | GI50 (SNB-19): > 100 µM (inactive) | GI50 (MDA-MB-231): > 100 µM (inactive) | GI50 (HCT-15): > 100 µM | GI50 (LOX IMVI): > 100 µM (inactive) | GI50 (T47D): > 100 µM (inactive) | GI50 (OVCAR-5): > 100 µM (inactive) | GI50 (A498): > 100 µM (inactive) | GI50 (UO-31): > 100 µM (inactive) | GI50 (SK-MEL-28): > 100 µM (inactive) | GI50 (RPMI-8226): > 100 µM (inactive)

Oc1ccc(Cn2c(-c3ccc(O)c(O)c3)nc3ccccc32)cc1O
GI50 (NCI-H23): 23.3 µM (inactive) | GI50 (TK-10): 9.64 µM (inactive) | GI50 (NCI-H522): 4.67 µM (inactive) | GI50 (RXF 393): 29.4 µM (inactive) | GI50 (SF-268): 11.5 µM (inactive) | GI50 (SNB-75): 12.1 µM (inactive) | GI50 (K562): 10.8 µM (inactive) | GI50 (Malme-3M): 9.12 µM (inactive) | GI50 (SK-MEL-5): 14.7 µM (inactive) | GI50 (COLO 205): 17.4 µM (inactive) | GI50 (SNB-19): 9.2 µM (inactive) | GI50 (MDA-MB-231): 12.3 µM (inactive) | GI50 (HCT-15): 7.48 µM | GI50 (LOX IMVI): 11.8 µM (inactive) | GI50 (T47D): 10.6 µM (inactive) | GI50 (OVCAR-5): 38.1 µM (inactive) | GI50 (A498): 90.2 µM (inactive) | GI50 (UO-31): 10.8 µM (inactive) | GI50 (SK-MEL-28): 22.1 µM (inactive) | GI50 (RPMI-8226): 13.3 µM (inactive)

NNC(=O)Nc1nc2ccc(NN)cc2[nH]1
GI50 (NCI-H23): 44.1 µM (inactive) | GI50 (TK-10): 36 µM (inactive) | GI50 (NCI-H522): 29.6 µM (inactive) | GI50 (RXF 393): 25 µM (inactive) | GI50 (SF-268): 37.2 µM (inactive) | GI50 (SNB-75): 25.6 µM (inactive) | GI50 (K562): 18.7 µM (inactive) | GI50 (Malme-3M): 59.6 µM (inactive) | GI50 (SK-MEL-5): 22.9 µM (inactive) | GI50 (COLO 205): 16.5 µM (inactive) | GI50 (SNB-19): 58.5 µM (inactive) | GI50 (MDA-MB-231): 51.9 µM (inactive) | GI50 (HCT-15): 31.3 µM | GI50 (LOX IMVI): 43.1 µM (inactive) | GI50 (T47D): 26.4 µM (inactive) | GI50 (OVCAR-5): > 100 µM (inactive) | GI50 (A498): 23.6 µM (inactive) | GI50 (UO-31): 60.5 µM (inactive) | GI50 (SK-MEL-28): 19 µM (inactive) | GI50 (RPMI-8226): 7 µM (inactive)

CN1CCC(n2[nH]c(-c3ccccc3)c(Cc3ccccc3)c2=O)CC1 [BENZPIPERYLON]
GI50 (NCI-H23): > 100 µM (inactive) | GI50 (TK-10): > 100 µM (inactive) | GI50 (NCI-H522): > 100 µM (inactive) | GI50 (RXF 393): 63 µM (inactive) | GI50 (SF-268): > 100 µM (inactive) | GI50 (SNB-75): 29.7 µM (inactive) | GI50 (K562): 42.2 µM (inactive) | GI50 (Malme-3M): 90.8 µM (inactive) | GI50 (SK-MEL-5): > 100 µM (inactive) | GI50 (COLO 205): > 100 µM (inactive) | GI50 (SNB-19): > 100 µM (inactive) | GI50 (MDA-MB-231): > 100 µM (inactive) | GI50 (HCT-15): > 100 µM | GI50 (LOX IMVI): > 100 µM (inactive) | GI50 (T47D): > 100 µM (inactive) | GI50 (OVCAR-5): > 100 µM (inactive) | GI50 (A498): 93.3 µM (inactive) | GI50 (UO-31): 88.9 µM (inactive) | GI50 (SK-MEL-28): > 100 µM (inactive) | GI50 (RPMI-8226): 46.8 µM (inactive)
